As usually defined, the pIC50 is the negative decadic logarithm of the IC50, by convention in mol/L.

pIC50: −log10 of the molar value. Non-standard residues stand in square brackets, D forms with d. Residues, ends and D or L forms follow the SMILES beside them. *: point of attachment. Phe(4-Br) = N[CH](Cc1ccc(Br)cc1)C(=O)O; Cha = N[CH](CC1CCCCC1)C(=O)O; Cbz = O=C(OCc1ccccc1)*; Bn = c1ccc(C*)cc1

Sequence of endothelin converting enzyme (ECE) (F1SU04 entry or part of it): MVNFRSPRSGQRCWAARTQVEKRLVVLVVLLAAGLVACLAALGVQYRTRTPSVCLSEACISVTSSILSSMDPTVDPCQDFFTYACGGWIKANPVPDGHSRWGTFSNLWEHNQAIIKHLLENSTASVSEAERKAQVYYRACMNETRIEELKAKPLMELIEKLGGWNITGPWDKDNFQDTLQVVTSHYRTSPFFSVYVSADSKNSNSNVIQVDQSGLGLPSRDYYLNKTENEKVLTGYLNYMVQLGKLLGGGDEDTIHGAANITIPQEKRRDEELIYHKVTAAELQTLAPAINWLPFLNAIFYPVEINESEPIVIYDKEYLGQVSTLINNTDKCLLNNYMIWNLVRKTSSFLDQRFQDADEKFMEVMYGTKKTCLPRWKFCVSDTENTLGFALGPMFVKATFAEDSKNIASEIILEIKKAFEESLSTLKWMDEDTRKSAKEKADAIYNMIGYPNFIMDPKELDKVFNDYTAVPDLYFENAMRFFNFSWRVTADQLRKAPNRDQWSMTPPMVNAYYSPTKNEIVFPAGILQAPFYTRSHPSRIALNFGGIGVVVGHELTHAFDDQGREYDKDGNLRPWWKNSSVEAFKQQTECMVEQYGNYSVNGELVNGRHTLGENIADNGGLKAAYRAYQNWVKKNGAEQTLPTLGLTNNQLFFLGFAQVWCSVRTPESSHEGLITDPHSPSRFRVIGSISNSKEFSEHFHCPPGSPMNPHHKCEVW

In the experiment the target is endothelin converting enzyme (ECE) (Sus scrofa, UniProt F1SU04). Kind of experiment: "ECE" assay with porcine aortic "ECE" prep, fluorogenic substrate Suc-Ile-Ile-Trp-MCA. The class given is biochemical. Particulars: porcine aortic endothelial cell ECE prep; 80 μM Suc-Ile-Ile-Trp-MCA; 15-20 min preincubation; overnight at 37° C.; pH 7.0; AMC fluorescence. How it is done:
IC50 values were determined as follows:
Porcine Aortic "ECE" Prep
Porcine aortas (22-25) were obtained fresh from a local slaughterhouse and delivered in cold PBS on ice. The aortas were cut open, rinsed with cold PBS and the endothelial cell layer scraped into cold PBS using a scalpel. The endothelial cells were pelleted by centrifugation, rinsed once with cold PBS, and repelleted. The pellet was lysed by addition of 10 volumes of 10 mM Tris-HCl, pH 7.0, containing protease inhibitors and DTS, followed by brief sonication and homogenization. The lysate was centrifuged at 100,000 g for 1 hour and the supernatant applied to a MONOQ FPLC anion exchange column equilibrated in 10 mM Tris-HCl, pH 7.0 (buffer A) which was then developed with an increasing gradient of NaCl in buffer A. The active fractions were aliquoted and stored at -70° C.
The ECE assay was performed in 96-well microplates in a total volume of 200μ/well. The assay cocktail contains 100 mM Tris-HCl, pH 7.0, 20 mM CaCl2, 80 μM substrate (Suc-Ile-Ile-Trp-MCA), enzyme and test compounds. The test compounds were preincubated with the enzyme for 15-20 minutes before initiation of the assay by addition of the substrate. The assay was incubated overnight at 37° C. and the fluorescence intensity caused by the release of AMC was determined using a fluorescence microplate reader (EX360 nm/EM460 nm). IC50 values for compounds were determined by constructing concentration-effect curves for the inhibition of enzyme activity. Concentrations on the linear portion of the inhibition curve were used to determine the IC50 utilizing a Hill plot.
In turn, `COC(OC)[C@H](Cc1c[nH]c2ccccc12)NC(=O)[C@H](Cc1cccc2ccccc12)NC(=O)[C@H](Cc1ccc(Br)cc1)NC(=O)CCCCC1SCC2NC(=O)NC21` (stereo partly drawn) [Example 92, N-[[5-(hexahydro-2-oxo-1H-thieno[3,4-d]imidazol-4-yl)pentanoyl]-L-p-bromophenylalanyl-L-1-naphthylalanyl-L-N-[1-dimethoxymethyl]2-(1H-indol-3-yl)ethyl]amide] gave a pIC50 of 6.00.

In the case of `O=CC(Cc1c[nH]c2ccccc12)NC(=O)[C@H](Cc1cccc2ccccc12)NC(=O)[C@H](Cc1ccc(Br)cc1)NC(=O)CCCCC1SCC2NC(=O)NC21` (stereo partly drawn) [Example 93, N-[[5-(hexahydro-2-oxo-1H-thieno[3,4-d]imidazol-4-yl)pentanoyl]-L-p-bromophenylalanyl-L-1-naphthylalanyl-L-N-[1-formyl]2-(1H-indol-3-yl)ethyl]amide], the pIC50 is 8.70.

`O=C(N[C@@H](Cc1ccc(Br)cc1)C(=O)N[C@@H](Cc1cccc2ccccc12)C(=O)NC(Cc1ccccc1)C(=O)C1CO1)OCc1ccccc1` (stereo partly shown) [Example 94] had a pIC50 of 8.22.

For `CC[C@H](C)[C@H](NC(=O)OCc1ccccc1)C(=O)N[C@H](C(=O)NC(Cc1c[nH]c2ccccc12)CN1C(=O)C=CC1=O)[C@@H](C)CC` (stereo partly drawn) [Example 95, N-[(benzyloxy)carbonyl]-L-isoleucyl-L-isoleucine-L-N-[1-(N-maleimidomethyl)-2-(1H-indol-3-yl)ethyl]amide], the pIC50 is 6.00.

Compound `CC[C@H](C)[C@H](NC(=O)OCc1ccccc1)C(=O)N[C@H](C(=O)NC(Cc1ccccc1)C(=O)C(=O)C(=O)OC)[C@@H](C)CC` (stereo partly drawn) [Example 96, N-[(benzyloxy)carbonyl]-L-isoleucyl-L-isoleucine-L-N-[1-(3-methoxycarbonyloxalyl]2-(phenyl)ethyl]amide] gave a pIC50 of 5.00.

The compound `O=CC(Cc1ccc(Br)cc1)NC(=O)C(Cc1ccc(OCc2ccccc2)cc1)NC(=O)C(CC1CCCCC1)NC(=O)OCc1ccccc1` (stereo not drawn) [Example 97, N-Benzyloxycarbonyl-S-cyclohexylalanyl-S-(O-benzyl)tyrosyl-1-S-formyl-1-(4-bromophenylmethyl)-methylamide] (Cbz-[Cha]-Tyr(Bn)-[Phe(4-Br)]-aldehyde; configuration not given here) showed a pIC50 of 5.00.

`O=C[C@H](Cc1ccc(Br)cc1)NC(=O)[C@H](Cc1ccc(OCc2ccccc2)cc1)NC(=O)[C@H](Cc1ccc(OCc2ccccc2)cc1)NC(=O)OCc1ccccc1` [Example 98, N-Benzyloxycarbonyl-S-(O-benzyl)tyrosyl-S-(O-benzyl)tyrosyl-1-S-formyl-1-(4-bromophenylmethyl)-methylamide] (Cbz-Tyr(Bn)-Tyr(Bn)-[Phe(4-Br)]-aldehyde) had a pIC50 of 6.00.

In turn, `CCOc1ccc(CC(NC(=O)C(Cc2ccc(OCc3ccccc3)cc2)NC(=O)OCc2ccccc2)C(=O)NC(C=O)Cc2ccc(Br)cc2)cc1` (stereo not drawn) [Example 99, N-Benzyloxycarbonyl-S-(O-benzyl)tyrosyl-S-(O-ethyl)tyrosyl-1-S-formyl-1-(4-bromophenylmethyl)-methylamide] (Cbz-Tyr(Bn)-Tyr(Et)-[Phe(4-Br)]-aldehyde; configuration not given here) gave a pIC50 of 7.70.

For `CCOc1ccc(C[C@H](NC(=O)OCc2ccccc2)C(=O)N[C@@H](Cc2ccc(OCc3ccccc3)cc2)C(=O)N[C@H](C=O)Cc2ccc(Br)cc2)cc1` [Example 100, N-Benzyloxycarbonyl-S-(O-ethyl)tyrosyl-S-(O-benzyl)tyrosyl-1-S-formyl-1-(4-bromophenylmethyl)-methylamide] (Cbz-Tyr(Et)-Tyr(Bn)-[Phe(4-Br)]-aldehyde), the pIC50 was 7.22.

On to “N-(3-Phenylpropionyl)-L-isoleucyl-L_isoleucine-L-N-[1-formyl]2-(1H-indol-3- yl)ethyl]amide [Example 59]”, for which the pIC50 is 7.00.

For “N-(benzyloxy)carbonyl-L-isoleucyl-L-isoleucine-L-N[1-[[(5-nitro-2-pyridyl)dithio]methyl]-2-(1H-indol-3-yl)ethyl]amide [Example 57]”, the pIC50 was 6.00.

With “N-Benzloxycarbonyl-L-isoleucyl-L-isoleucine-L-N-[1-ethoxalyl]2-(phenyl)ethyl]amide [Example 53]”, the pIC50 was 5.00.

“N-Benzyloxycarbonyl-L-isoleucyl-L-isoleucine-L-N-[1-[2-oxiranylcarbonyl]-2- (phenyl)ethyl]amide [Example 45]” gave a pIC50 of 6.70.

In the case of “N-Benzyloxycarbonyl-L-isoleucyl-L-isoleucine-L-N-[1-formylhydroxymethyl-2-(phenylethyl]amide) [Example 47]”, the pIC50 was 5.30.

For the compound “N-Benzyloxycarbonyl-L-isoleucyl-L-isoleucine-L-N-[1-glyoxyloyl-2-(phenyl)ethyl]amide [Example 46]”, the pIC50 is 6.10.

With “N-Benzyloxycarbonyl-L-isoleucyl-L-isoleucine-L-N-[1pyruvoyl]2-(phenyl)ethyl]amide [Example 52]”, the pIC50 was 5.70.

On to “N-Benzyloxycarbonyl-L-isoleucyl-L-isoleucine-L-N-[(E)-2-(methoxycarbonyl)vinyl]2-(1H-indol-3-yl)ethyl]amide [Example 51]”, for which the pIC50 was 5.00.

The compound “N-Benzyloxycarbonyl-L-isoleucyl-L_isoleucine-L-N-[1[2-(acetylthio)acetyl]2- phenyl)ethyl]amide [Example 55]” gave a pIC50 of 5.10.

With “N-Benzyloxycarbonyl-S-isoleucyl-S-phenylalanyl-1-S-formyl-1-(S)-1-methylpropylbutyl-methylamide [Example 23]”, the pIC50 is 5.46.

On to “N-Benzyloxycarbonyl-S-p-bromophenylalanyl-S-2'naphthylalanyl-1-S-formyl-1-(1H-indol-3-yl-methyl)-methylamide [Example 38]”, for which the pIC50 was 8.10.

Compound “N-Benzyloxycarbonyl-S-tryptophanyl-S-2'naphthylalanyl-1-S-formyl-1-(1H-indol-3-yl-methyl)-methylamide [Example 35]” had a negative-log IC50 (pIC50) of 7.52.

With “N-Benzyloxycarbonyl-S-tryptophanyl-S-tryptophanyl-1-S-formyl-1-(1H-indol-3- yl-methyl)-methylamide [Example 31]”, the pIC50 was 7.22.

Turning to “N-[12-[(benzyloxy)acetamido]dodecanoyl]--L-isoleucyl-L-isoleucine-L-N-[1-formyl]2-(1H-indol-3-yl)ethyl]amide [Example 79]”, the pIC50 was 7.22.

With “N-[(benzyloxy)carbonyl]-L-aspart-1-yl]-L-isoleucyl-L-isoleucine-L-N-[1-dimethoxymethyl]2-(1H-indol-3-yl)ethyl]amide [Example 76]”, the pIC50 was 5.59.

Consider “N-[[5-(hexahydro-2-oxo-1H-thieno[3,4-d]imidazol-4-yl]valeryl-L-isoleucyl-L- isoleucine-L-N-[1-formyl]2-(1H-indol-3-yl)ethyl]amide [Example 63]”, for which the pIC50 is 7.52.

“N-[[[5-(hexahydro-2-oxo-1H-thieno[3,4-d]imidazol-4-yl)valeramido]hexanoyl]- L-isoleucyl-L-isoleucine-L-N-[1-formyl]2-(1H-indol-3-yl-ethyl]amide [Example 67]” had a pIC50 of 7.10.

In the case of “N-[benzyloxy)carbonyl]-L-aspart-1-yl]-L-isoleucyl-L-isoleucine-L-N-[1-formyl]2-(1H-indol-3-yl)ethyl]amide [Example 65]”, the negative logarithm of the IC50 (pIC50) is 7.00.

In turn, “[[5-(hexahydro-2-oxo-1H-thieno[3,4-d]imidazol-4-yl]valeryl-L-isoleucyl-L-isoleucine-L-N-[1-dimethoxymethyl]2-(1H-indol-3-yl)ethyl]amide [Example 62]” showed a pIC50 of 5.70.
